These results are taken from patent US20100204460A1, “NATURAL BRASSINOSTEROIDS FOR USE FOR TREATING HYPERPROLIFERATION, TREATING PROLIFERATIVE DISEASES AND REDUCING ADVERSE EFFECTS OF STEROID DYSFUNCTION IN MAMMALS, PHARMACEUTICAL COMPOSITION AND ITS USE” (priority 2007, published 2010).

Assay type in all cases: cell-based
The test system of one data set is DU-145 cells. Nature of the data set: BrdU incorporation assay, DU-145. As for the experimental part:
To analyze if the inhibition in cell viability was due to decreased cell proliferation, we measured DNA synthesis in the presence of BRs. The effect of brassinosteroids 9 or 6 on cell proliferation and DNA replication of the cancer cells was measured by BrdU incorporation assay. This immunostaining was based on nuclear incorporation of bromodeoxyuridine (BrdU) into DNA in place of thymidine during the S-phase of cell cycle detected by anti-specific-BrdU antibody following membrane permeabilization as described previously (Gratzner, Science. 1982, 218, 474-475). […] The BrdU reagent (0.1 mM; Sigma, MO, USA) was added in culture medium with cells for 4 h in a CO2 incubator at 37° C. After incubation the cells were washed three times with PBS and fixed with cold acetone-methanol (1:1, v/v) for 10 min. The cells were denaturated by HCl (1:5; Lachema, Czech Republic) and incubated with anti-specific-BrdU antibody (diluted 1:100 in PBS; clone Bu20a, DakoCytomation, Denmark) for 60 min in the dark. The cells were then washed three times in PBS (10 mM, pH 7.4) and incubated with goat anti-mouse fluorescein isothiocyanate (FITC)-labeled secondary antibody (Sigma, MO, USA) for 60 min in the dark. The cells were then washed three times in PBS and incubated with DAPI (50 μg/mL; Sigma, MO, USA) for 10 min in the dark. The coverslips with cells were washed in deionized water and mounted on glass slides, using the hydrophilic medium Mowiol (Calbiochem, Calif., USA) in glycerol-PBS (1:3, v/v) for fluorescence. Cells were visualized using microscopy and those incorporating BrdU (S phase cells) were counted in at least 25 fields and compared with the total number of all cells.
Background: Incorporation of labelled thymidine or its analogues reports DNA synthesis.

The subject of data set [1] is normal human fibroblasts (BJ). Description: Calcein AM cytotoxicity assay, BJ. The conditions noted are these: BJ normal fibroblasts; exposure 72 h (b71 says 96 h); mean ± SD; read-out: IC50 assessed by Calcein AM assay of surviving cells.
The subject of data set [2] is MCF-7, LNCaP and DU-145 cancer cell lines. Description: MTT cytotoxicity test, summary over cell lines. The conditions noted are these: over cell lines except MDA-MB-468; 24 h; read-out: IC50 value around which the cell lines move (MTT). As for the experimental part:
Stock solutions ([…]) were prepared by dissolving relevant quantity of substance in DMSO cultivation media (DMEM, RPMI 1640, F-12 medium), fetal bovine serum (FBS), L-glutamine, penicillin, and streptomycin were purchased from Sigma (MO, USA). 3-(4,5-Dimethylthiazol-2-yl)-2,5-diphenyltetrazolium bromide (MTT) was from Serva Electrophoresis (Heidelberg, Germany). Monoclonal mouse anti-bromodeoxyuridine (BrdU) intibody was obtained from DakoCytomation (Glostrup, Denmark). Calcein AM was obtained from PAA Laboratories GmbH (Pasching, Austria). […]
Cell viability in this case was assessed by 3-(4,5-dimethylthiozol-2-yl)-2,5-diphenyltetrazolium bromide (MTT) to determine IC50 concentrations of studied agents as described previously. […] The absorbance was read using an ELISA reader Labsystem Multiscan RC at 570 nm. […]

The test system of data set [3] is DU-145 (androgen-insensitive) prostate cancer cell line. Nature of the data set: MTT cytotoxicity test, DU-145. The conditions noted are these: 24 h, mean ± SD, read-out: IC50 determined by MTT cytotoxicity test. As for the experimental part: 3-(4,5-Dimethylthiazol-2-yl)-2,5-diphenyltetrazolium bromide (MTT) was from Serva Electrophoresis (Heidelberg, Germany). Monoclonal mouse anti-bromodeoxyuridine (BrdU) intibody was obtained from DakoCytomation (Glostrup, Denmark). Calcein AM was obtained from PAA Laboratories GmbH (Pasching, Austria). […] All other cells were cultured in DMEM medium (Sigma, MO, USA). All used media were supplemented with 10% heat-inactivated fetal bovine serum, 2 mmol/L L-glutamine, 1% penicillin/streptomycin. The cell lines were maintained under standard cell culture conditions at 37° C. and 5% CO2 in a humid environment. Cells were subcultured twice or three times a week using the standard trypsinization procedure (Sigma, USA).
Cell viability in this case was assessed by 3-(4,5-dimethylthiozol-2-yl)-2,5-diphenyltetrazolium bromide (MTT) to determine IC50 concentrations of studied agents as described previously. […] The cells (70% to 80% confluent) were treated with brassinosteroids for 6, 12 and 24 h in cell culture medium. Cells that were used as controls were incubated with the maximum used amount of steroid diluent DMSO only. […] The absorbance was read using an ELISA reader Labsystem Multiscan RC at 570 nm. The viability of treated cells was related to the viability of control cells that represented 100% viability. […]
(In general: Tetrazolium assays rely on reduction of a dye to a coloured formazan, in cell work by metabolically active cells.)

Setting [4] is: treated at IC50 for 6 h, control 51 ± 3.8.
Setting [5] is: treated at IC50 for 12 h, control 54 ± 4.2.
Setting [6] is: treated at IC50 for 24 h, control 56 ± 6.5.

By IC50 is commonly meant the concentration that gives 50% inhibition. As for `CC[C@@H](C(C)C)[C@@H](O)[C@H](O)[C@@H](C)[C@H]1CC[C@H]2[C@@H]3CC(=O)[C@H]4C[C@H](O)[C@H](O)C[C@]4(C)[C@H]3CC[C@]12C` [Brassinosteroid 9, 28-Homocastasterone], the entries for the “percentage of proliferating BrdU positive cells” value with DU-145 cells (setting [4]), in the data set with DU-145 cells (setting [5]) and in the data set on DU-145 cells (setting [6]) were 41 ± 4.5%, 36 ± 4.4 % and 38 ± 4.0 %, respectively. For the same compound, the IC50 was greater than 50 µM in data set [1], roughly 43.3 µM in data set [2] and 45 ± 2.8 µM in data set [3].
As to `CC(C)[C@@H](C)[C@@H](O)[C@H](O)[C@@H](C)[C@H]1CC[C@H]2[C@@H]3COC(=O)[C@H]4C[C@H](O)[C@H](O)C[C@]4(C)[C@H]3CC[C@]12C` [Brassinosteroid 6, 24-Epibrassinolide], the “percentage of proliferating BrdU positive cells” value is on record as 32 ± 3.8 % in the data set on DU-145 cells (setting [4]), 27 ± 5.3 % with DU-145 cells (setting [5]) and 16 ± 1.5 % in the data set on DU-145 cells (setting [6]). Further, the IC50 in data set [1] was greater than 50 µM; in data set [2], roughly 61.7 µM; in data set [3], 65 ± 0.9 µM.
